Among the data in patent US10065941B2, “Aminotriazine derivative and pharmaceutical composition comprising the same” (Shionogi & Co., Ltd., priority 2013, dated 2018) are IC50 values, retold here.

One may read the IC50 as the point on the concentration scale where inhibition reaches its midpoint. A high value points to weaker potency in that assay.

Sequence of human P2X3 receptor (P56373 whole entry): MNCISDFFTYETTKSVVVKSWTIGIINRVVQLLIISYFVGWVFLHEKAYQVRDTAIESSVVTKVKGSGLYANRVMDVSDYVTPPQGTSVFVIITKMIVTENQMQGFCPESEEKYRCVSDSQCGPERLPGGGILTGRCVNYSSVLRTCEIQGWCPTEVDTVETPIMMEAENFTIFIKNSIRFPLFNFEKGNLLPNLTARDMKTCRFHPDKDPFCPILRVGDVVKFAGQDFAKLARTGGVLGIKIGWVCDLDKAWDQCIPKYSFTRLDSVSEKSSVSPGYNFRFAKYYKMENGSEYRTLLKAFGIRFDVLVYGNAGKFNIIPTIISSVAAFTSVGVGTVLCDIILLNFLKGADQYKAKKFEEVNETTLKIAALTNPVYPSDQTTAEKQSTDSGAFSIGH

This experiment has as its target human P2X3 receptor (Homo sapiens (Human), UniProt P56373). Nature of the experiment: Evaluation of human P2X3 receptor inhibitory activity (Test Example 1). It is filed as cell-based. To be noted: C6BU-1 cell transfected with human P2X3 receptor gene, FLIPR 384. On the procedure: Stably expressing cell line (C6BU-1 cell transfected with human P2X3 receptor gene (GenBank accession number Y07683) was used. The cells were seeded in a 384-well PDL-coated microtiter plate at a concentration of 3000 cells/well and cultured in the medium (8.3% fetal bovine serum, 8.3% horse serum, and 1% antibiotic and antifungal in DMEM) for one day at 37° C. under 5% carbon dioxide atmosphere. The medium was replaced with 4 μM Fluo-3-AM solution (20 mM HEPES, 137 mM NaCl, 2.7 mM KCl, 0.9 mM MgCl2, 5.0 mM CaCl2, 5.6 mM D-glucose, 2.5 mM probenecid, 0.5% BSA, and 0.04% Pluronic F-127, pH 7.5) and incubated at 37° C. under 5% dioxide carbon atmosphere for one hour. The plate was washed with washing buffer (20 mM HEPES, 137 mM NaCl, 2.7 mM KCl, 0.9 mM MgCl2, 5.0 mM CaCl2, 5.6 mM D-glucose, 2.5 mM probenecid, pH7.5), and each well was added with 20 μL of the washing buffer. The plate was placed in High-Throughput Screening System FLIPR 384 (Molecular Device Co.). Measurement of fluorescence intensity by FLIPR 384 was started, and 20 μL of DMSO solutions containing different concentrations of the test compound as prepared by dilution with dilution buffer (20 mM HEPES, 137 mM NaCl, 2.7 mM KCl, 0.9 mM MgCl2, 5.0 mM CaCl2, 5.6 mM D-glucose, 2.5 mM probenecid, 0.1% Pluronic F-127, pH7.5) were dispensed to each well through the built-in automatic dispenser. Five minutes after, 150 nM ATP solution (25 μL) prepared by dilution with the dilution buffer was dispensed through the built-in automatic dispenser, and the measurement of fluorescence intensity was continued for 4 min. For each well, the specific maximum fluorescence intensity was calculated as the ratio of the maximum fluorescence intensity after addition of the ATP solution to the fluorescence intensity at the starting of the measurement. […] The specific maximum fluorescence intensity and IC50 were calculated using Spotfire (Science & Technology Systems, Inc.)
Take `COC(=O)[C@@H](C)Cn1c(=O)[nH]/c(=N\c2ccc(Oc3ccc(C)cn3)cc2)n(Cc2ccc(Cl)cc2)c1=O` [Compound I-051]: the midpoint of inhibition, the IC50, lay at 6 nM.

Regarding `COC(=O)[C@@H](C)Cn1c(=O)[nH]/c(=N\c2ccc(Oc3ncccc3F)cc2)n(Cc2ccc(C)cc2)c1=O` [Compound I-052], the IC50 was found to be 6 nM.

`COC(=O)[C@@H](C)Cn1c(=O)[nH]/c(=N\c2ccc(Oc3cccc(F)n3)cc2)n(Cc2ccc(C)cc2)c1=O` [Compound I-053] returned an IC50 of 6 nM.

Take `Cc1ccc(Oc2ccc(/N=c3\[nH]c(=O)n(C[C@H](C)C(=O)O)c(=O)n3Cc3ccc(Cl)cc3)cc2)nc1` [Compound I-054]: inhibition was half-maximal at 5 nM (IC50).

In turn, `COC(=O)C(C)(C)Cn1c(=O)[nH]/c(=N\c2ccc(Oc3ccc(C)cn3)cc2)n(Cc2ccc(Cl)cc2)c1=O` [Compound I-055] displayed an IC50 of 9 nM.

Turning to `Cc1ccc(Cn2c(=O)n(C[C@H](C)C(=O)O)c(=O)[nH]/c2=N\c2ccc(Oc3ncccc3F)cc2)cc1` [Compound I-056], half-maximal inhibition (IC50) required 7 nM.

Consider `O=C(O)C1(Cn2c(=O)[nH]/c(=N\c3ccc(Oc4ccc(F)cn4)cc3)n(Cc3ccc(Cl)cc3)c2=O)COC1` [Compound I-059], for which 16 nM corresponded to half-maximal inhibition (IC50).

Take `COC(=O)[C@@H](C)Cn1c(=O)[nH]/c(=N\c2ccc(Oc3cc(Cl)ccn3)cc2)n(Cc2ccc(Cl)cc2)c1=O` [Compound I-060]: the IC50 was found to be 24 nM.

`CCOC(=O)[C@H]1C[C@H](n2c(=O)[nH]/c(=N\c3ccc(Oc4ncccc4F)cc3)n(Cc3ccc(Cl)cc3)c2=O)C1` [Compound I-061] yielded an IC50 of 62 nM.

With `CCOC(=O)[C@H]1C[C@@H](n2c(=O)[nH]/c(=N\c3ccc(Oc4ncccc4F)cc3)n(Cc3ccc(Cl)cc3)c2=O)C1` [Compound I-062], the concentration for half-maximal inhibition (IC50) was 31 nM.

Turning to `O=c1[nH]/c(=N\c2ccc(Oc3ncccc3F)cc2)n(Cc2ccc(Cl)cc2)c(=O)n1[C@H]1C[C@@H](C(=O)O)C1` [Compound I-064], the IC50 is 10 nM.

On to `C[C@@H](Cn1c(=O)[nH]/c(=N\c2ccc(Oc3cc(Cl)ccn3)cc2)n(Cc2ccc(Cl)cc2)c1=O)C(=O)O` [Compound I-065], for which the 50% inhibitory concentration (IC50) is 8 nM.

With `CCOC(=O)C1(Cn2c(=O)[nH]/c(=N\c3ccc(Oc4ncccc4F)cc3)n(Cc3ccc(Cl)cc3)c2=O)CC1` [Compound I-066], the IC50 turned out to be 15 nM.

Compound `O=C(O)C1(Cn2c(=O)[nH]/c(=N\c3ccc(Oc4ncccc4F)cc3)n(Cc3ccc(Cl)cc3)c2=O)CC1` [Compound I-067] had an IC50 of 11 nM.

Turning to `COC(=O)[C@@H](C)Cn1c(=O)[nH]/c(=N\c2ccc(Oc3cc(F)ccn3)cc2)n(Cc2ccc(Cl)cc2)c1=O` [Compound I-068], the IC50 amounted to 5 nM.

`COc1ccnc(Oc2ccc(/N=c3\[nH]c(=O)n(C[C@H](C)C(=O)O)c(=O)n3Cc3ccc(Cl)cc3)cc2)c1` [Compound I-069] showed an IC50 of 7 nM.

On to `COC(=O)[C@H](C)[C@H](C)n1c(=O)[nH]/c(=N\c2ccc(Oc3ccc(OC(F)F)cn3)cc2)n(Cc2ccc(Cl)cc2)c1=O` [Compound I-071], for which the IC50 was determined as 38 nM.

`C[C@@H](C(=O)O)[C@H](C)n1c(=O)[nH]/c(=N\c2ccc(Oc3ccc(OC(F)F)cn3)cc2)n(Cc2ccc(Cl)cc2)c1=O` [Compound I-072] had a 50% inhibitory concentration (IC50) of 6 nM.

`COC(=O)[C@H](C)[C@H](C)n1c(=O)[nH]/c(=N\c2ccc(Oc3ccc(C)cn3)cc2)n(Cc2ccc(Cl)cc2)c1=O` [Compound I-073] registered an IC50 of 15 nM.

In turn, `Cc1ccc(Oc2ccc(/N=c3\[nH]c(=O)n([C@@H](C)[C@@H](C)C(=O)O)c(=O)n3Cc3ccc(Cl)cc3)cc2)nc1` [Compound I-074] gave a half-maximal inhibitory concentration (IC50) of 5 nM.

On to `COC(=O)[C@H](C)[C@H](C)n1c(=O)[nH]/c(=N\c2ccc(Oc3cc(C#N)ccn3)cc2)n(Cc2ccc(Cl)cc2)c1=O` [Compound I-075], for which the half-maximal inhibitory concentration (IC50) is 21 nM.

`COC(=O)[C@@H](C)Cn1c(=O)[nH]/c(=N\c2ccc(Oc3cc(C)ccn3)cc2)n(Cc2ccc(Cl)cc2)c1=O` [Compound I-076] gave a concentration for half-maximal inhibition (IC50) of 22 nM.

Compound `Cc1cccnc1Oc1ccc(/N=c2\[nH]c(=O)n(C[C@H](C)C(=O)O)c(=O)n2Cc2ccc(Cl)cc2)cc1` [Compound I-077] had an IC50 of 10 nM.

`Cc1cccnc1Oc1ccc(/N=c2\[nH]c(=O)n(CC(C)(C)C(=O)O)c(=O)n2Cc2ccc(Cl)cc2)cc1` [Compound I-078] returned a concentration for half-maximal inhibition (IC50) of 19 nM.

As for `COc1ccc(Oc2ccc(/N=c3\[nH]c(=O)n(C[C@H](C)C(=O)O)c(=O)n3Cc3ccc(Cl)cc3)cc2)nc1` [Compound I-079], 5 nM corresponded to half-maximal inhibition (IC50).

`Cc1ccnc(Oc2ccc(/N=c3\[nH]c(=O)n(C[C@H](C)C(=O)O)c(=O)n3Cc3ccc(Cl)cc3)cc2)c1` [Compound I-080] had an IC50 of 10 nM.

For the compound `COC(=O)C(C)(C)Cn1c(=O)[nH]/c(=N\c2ccc(Oc3cc(Cl)ccn3)cc2)n(Cc2ccc(Cl)cc2)c1=O` [Compound I-081], the half-maximal inhibitory concentration (IC50) was found to be 38 nM.

Compound `COC(=O)[C@@H](C)Cn1c(=O)[nH]/c(=N\c2ccc(Oc3cc(C(F)(F)F)ccn3)cc2)n(Cc2ccc(Cl)cc2)c1=O` [Compound I-082] displayed a half-inhibitory concentration (IC50) of 112 nM.

Regarding `COC(=O)[C@@H](C)Cn1c(=O)[nH]/c(=N\c2ccc(Oc3ccc(CO)cn3)cc2)n(Cc2ccc(Cl)cc2)c1=O` [Compound I-083], the IC50 stood at 6 nM.

For `C[C@@H](Cn1c(=O)[nH]/c(=N\c2ccc(Oc3ccc(CO)cn3)cc2)n(Cc2ccc(Cl)cc2)c1=O)C(=O)O` [Compound I-084], the IC50 worked out at 8 nM.

Compound `COC(=O)C(C)(C)Cn1c(=O)[nH]/c(=N\c2ccc(Oc3cc(C(F)(F)F)ccn3)cc2)n(Cc2ccc(Cl)cc2)c1=O` [Compound I-085] had a half-maximal inhibitory concentration (IC50) of 225 nM.

In turn, `CC(C)(Cn1c(=O)[nH]/c(=N\c2ccc(Oc3cc(Cl)ccn3)cc2)n(Cc2ccc(Cl)cc2)c1=O)C(=O)O` [Compound I-086] returned a half-inhibitory concentration (IC50) of 33 nM.

On to `COC(=O)[C@H](C)[C@H](C)n1c(=O)[nH]/c(=N\c2ccc(Oc3cc(Cl)ccn3)cc2)n(Cc2ccc(Cl)cc2)c1=O` [Compound I-087], for which the IC50 was determined as 107 nM.

With `C[C@@H](Cn1c(=O)[nH]/c(=N\c2ccc(Oc3cc(C(F)(F)F)ccn3)cc2)n(Cc2ccc(Cl)cc2)c1=O)C(=O)O` [Compound I-088], the IC50 came to 15 nM.

Regarding `CCOC(=O)C[C@H](O)Cn1c(=O)[nH]/c(=N\c2ccc(Oc3ccc(F)cn3)cc2)n(Cc2ccc(Cl)cc2)c1=O` [Compound I-089], the IC50 amounted to 8 nM.

In the case of `O=C(O)C[C@H](O)Cn1c(=O)[nH]/c(=N\c2ccc(Oc3ccc(F)cn3)cc2)n(Cc2ccc(Cl)cc2)c1=O` [Compound I-090], 72 nM corresponded to half-maximal inhibition (IC50).

Compound `C[C@@H](C(=O)O)[C@H](C)n1c(=O)[nH]/c(=N\c2ccc(Oc3cc(Cl)ccn3)cc2)n(Cc2ccc(Cl)cc2)c1=O` [Compound I-091] displayed a concentration for half-maximal inhibition (IC50) of 10 nM.

As to `CC(C)(Cn1c(=O)[nH]/c(=N\c2ccc(Oc3cc(C(F)(F)F)ccn3)cc2)n(Cc2ccc(Cl)cc2)c1=O)C(=O)O` [Compound I-092], 68 nM corresponded to half-maximal inhibition (IC50).

Compound `COc1ccc(Oc2ccc(/N=c3\[nH]c(=O)n(CC(C)(C)C(=O)O)c(=O)n3Cc3ccc(Cl)cc3)cc2)nc1` [Compound I-093] yielded a 50% inhibitory concentration (IC50) of 16 nM.

On to `COc1ccc(Oc2ccc(/N=c3\[nH]c(=O)n([C@@H](C)[C@@H](C)C(=O)O)c(=O)n3Cc3ccc(Cl)cc3)cc2)nc1` [Compound I-094], for which inhibition was half-maximal at 11 nM (IC50).

As to `COC(=O)[C@H](C)[C@H](C)n1c(=O)[nH]/c(=N\c2ccc(Oc3ncccc3F)cc2)n(Cc2ccc(C)cc2)c1=O` [Compound I-095], the half-maximal inhibitory concentration (IC50) worked out at 9 nM.

`Cc1ccc(Cn2c(=O)n([C@@H](C)[C@@H](C)C(=O)O)c(=O)[nH]/c2=N\c2ccc(Oc3ncccc3F)cc2)cc1` [Compound I-096] returned an IC50 of 8 nM.

For `COC(=O)[C@@H](C)Cn1c(=O)[nH]/c(=N\c2ccc(Oc3ccc(Cl)cn3)cc2)n(Cc2ccc(C)cc2)c1=O` [Compound I-097], the IC50 came to 5 nM.

For the compound `COC(=O)C(C)(C)Cn1c(=O)[nH]/c(=N\c2ccc(Oc3ccc(Cl)cn3)cc2)n(Cc2ccc(C)cc2)c1=O` [Compound I-098], the IC50 came to 7 nM.

Compound `COC(=O)[C@H](Cn1c(=O)[nH]/c(=N\c2ccc(Oc3ncccc3F)cc2)n(Cc2ccc(Cl)cc2)c1=O)OC` [Compound I-099] gave an IC50 of 6 nM.

Regarding `Cc1ccc(Cn2c(=O)n(C[C@H](C)C(=O)O)c(=O)[nH]/c2=N\c2ccc(Oc3ccc(Cl)cn3)cc2)cc1` [Compound I-100], the IC50 worked out at 4 nM.

`Cc1ccc(Cn2c(=O)n(CC(C)(C)C(=O)O)c(=O)[nH]/c2=N\c2ccc(Oc3ccc(Cl)cn3)cc2)cc1` [Compound I-101] registered a half-maximal inhibitory concentration (IC50) of 5 nM.

On to `CO[C@@H](Cn1c(=O)[nH]/c(=N\c2ccc(Oc3ncccc3F)cc2)n(Cc2ccc(Cl)cc2)c1=O)C(=O)O` [Compound I-102], for which the IC50 was found to be 5 nM.
